This note sets out measurements from patent publication EP0363829A2, “Predicting sensitivity to injectable radio contrast media with histamine release test” (MILES INC., priority 1988, dated 1990).

In one series the test system is basophils. The class given is cell-based, patients. As to the method: In the first step a histamine-protein conjugate is adsorbed to 94 polystyrene pegs simultaneously. This is accomplished by submerging the pegs into wells of a 96 well microtiter plate (referred to as the adsorption plate) that contain a solution of a histamine-BSA conjugate. Two microtiter wells contain only BSA and are used as negative controls. Following a one hour incubation period at room temperature, the pegs are removed and washed to remove non-adsorbed conjugate.
A second 96 well microtiter plate (referred to as the release plate) containing various dilutions of RCM or histamine is also prepared. […]
The relative concentration of the monoclonal antibody-horseradish peroxidase conjugate bound to the histamine-BSA conjugate on the polystyrene pegs is now estimated by immersing the pegs in a third microtiter plate (referred to as the chromogen plate) containing a chromogenic substrate for horseradish peroxidase, 2, 2′-azino-di-(3-ethyl-benzothiazoline)-6-sulfonic acid (ABTS®). […] Quantitative assessment of histamine release can be made if a Microtiter ELISA Reader is available. […]
The radio contrast media (RCM) to be tested as the allergen was diluted into 8 to 9 serial dilutions using Tris ACM or distilled water as diluent. […] The release plate was then ready for use. […]

On the set-up of series [1]: species or system patients. Particulars: human, in vivo. The procedure: A clinical study was performed to test the hypothesis that sensitivity (allergy) to radio contrast media could be predicted by the results of the histamine release test described herein. Histamine release from a blood sample from patients who would later be tested with a radio contrast media was measured. The results were later compared with the occurrence of an allergic reaction to the administration of the radio contrast media.

Molecules are shown by their SMILES.

In the case of `CC(=O)Nc1c(I)c(NC(C)=O)c(I)c(C(=O)O)c1I` [Hypaque], in the series on basophils, the “degree of histamine release” value is “highest degree of histamine release” and the histamine release entry is “significantly more histamine release”. In series [1], the “patients with an allergic reaction to the injection of the radio contrast media” value is “one”.
